Measurements: patent US20240034737A1, “Heterocyclic Derivatives as P2X7 Receptor Antagonists” (BREYE THERAPEUTICS APS, priority 2020, published 2024)

Experiments:
P2X7 receptor = P2X7 receptor (Homo sapiens (Human), UniProt Q99572); test: Human P2X7 channel calcium-influx assay (Fluo-8 NW, FLIPR TETRA, Bz-ATP stimulation); format: cell-based; details: HEK-293 cells stably transfected with P2X7 receptor, Low Divalent Cation Assay Buffer, read-out: hP2X7 IC50
Summary of the method: (§1)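 HEK-293 cells stably expressing human or mouse P2X7, preloaded with Fluo-8 NW dye for 1 h at RT. Compounds added, Bz-ATP-evoked Ca2+ influx followed as fluorescence kinetics over 5 min on FLIPR TETRA; A438079 served as reference antagonist.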

CYP4503A4 = CYP4503A4 metabolic induction (mRNA expression) in human cryopreserved platable hepatocytes; format: in vitro ADME; details: 10 μM test compound, two days treatment, mRNA by QuantiGene Plex 2.0
Description: In Vitro Evaluation of Test Compounds for CYP4503A4 Metabolic Induction Using Human Liver Hepatocytes.
CYP induction assessment was performed using human cryopreserved platable hepatocytes. Test compound was assessed at three or six different concentrations in duplicate.
A sandwich culture of platable cryopreserved hepatocytes was used with one day recovery period after plating. Assessment of cell morphology and confluency was performed using a phase-contrast microscope for representative wells.
The plated hepatocyte cell monolayers were treated with test compound, negative and positive controls for two days changing medium every 24 hours. On the fourth day, assessment of cell morphology and confluency was repeated to ensure cell monolayer integrity. Assessment of cell morphology and confluency was performed using a phase-contrast microscope for representative wells.
Cell monolayers were assessed for test compound cytotoxicity by an adenosine triphosphate (ATP) content assay in a separate plate.
Expression levels of mRNA for CYP1A2, CYP2B6, and CYP3A4 were evaluated by the QuantiGene® Plex 2.0 methodology.

mP2X7 = mP2X7 (Mus musculus (Mouse), UniProt Q9Z1M0); test: mP2X7 channel calcium-influx assay (Fluo-8 NW, FLIPR TETRA, Bz-ATP stimulation); format: cell-based
Summary of the method: as §1

Sequence of mP2X7 (Q9Z1M0 whole entry): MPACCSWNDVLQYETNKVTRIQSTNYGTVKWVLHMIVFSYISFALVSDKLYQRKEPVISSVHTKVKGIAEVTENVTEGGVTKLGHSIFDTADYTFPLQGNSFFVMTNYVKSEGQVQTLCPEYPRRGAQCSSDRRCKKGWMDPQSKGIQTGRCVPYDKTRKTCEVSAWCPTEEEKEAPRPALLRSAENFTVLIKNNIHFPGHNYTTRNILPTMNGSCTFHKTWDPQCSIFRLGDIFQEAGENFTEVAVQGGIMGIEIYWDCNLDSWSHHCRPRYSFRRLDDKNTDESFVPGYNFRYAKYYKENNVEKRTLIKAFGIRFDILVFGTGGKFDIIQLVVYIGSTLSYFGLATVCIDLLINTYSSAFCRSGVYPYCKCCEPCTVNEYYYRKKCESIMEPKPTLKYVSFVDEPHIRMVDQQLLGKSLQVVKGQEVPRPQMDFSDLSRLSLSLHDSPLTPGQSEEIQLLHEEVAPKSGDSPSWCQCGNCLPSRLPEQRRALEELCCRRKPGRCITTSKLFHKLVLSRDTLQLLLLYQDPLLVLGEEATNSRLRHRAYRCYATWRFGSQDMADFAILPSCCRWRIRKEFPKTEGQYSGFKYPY
Sequence of P2X7 receptor (Q99572 whole entry): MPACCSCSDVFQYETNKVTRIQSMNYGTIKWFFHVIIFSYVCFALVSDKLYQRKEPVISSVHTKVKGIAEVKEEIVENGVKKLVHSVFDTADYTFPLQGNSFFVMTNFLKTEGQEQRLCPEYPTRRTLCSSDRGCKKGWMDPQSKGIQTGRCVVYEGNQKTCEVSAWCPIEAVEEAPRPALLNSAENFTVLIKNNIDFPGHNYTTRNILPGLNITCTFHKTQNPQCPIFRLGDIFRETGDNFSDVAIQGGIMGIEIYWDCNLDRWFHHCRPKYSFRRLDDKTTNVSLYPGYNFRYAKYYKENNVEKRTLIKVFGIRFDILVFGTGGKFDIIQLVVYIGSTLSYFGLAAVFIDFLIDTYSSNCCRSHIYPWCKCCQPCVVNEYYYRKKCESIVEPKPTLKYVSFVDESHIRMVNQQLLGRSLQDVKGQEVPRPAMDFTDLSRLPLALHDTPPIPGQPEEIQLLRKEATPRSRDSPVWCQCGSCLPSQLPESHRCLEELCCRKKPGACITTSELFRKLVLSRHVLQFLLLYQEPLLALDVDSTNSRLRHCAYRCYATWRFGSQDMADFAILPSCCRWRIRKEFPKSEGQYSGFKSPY

For `O=C(NCC(c1scnc1C(F)F)N1CCC(COc2ccc(F)nn2)CC1)c1c(F)cccc1Cl` (stereo not drawn) [Example 104, 2-Chloro-N-{2-[4-(difluoromethyl)-1,3-thiazol-5-yl]-2-(4-{[(6-fluoropyridazin-3-yl)oxy]methyl}piperidin-1-yl)ethyl}-6-fluorobenzamide], the IC50 (P2X7 receptor) was 49.6 nM, the “CYP4503A4 mRNA fold increase at 10 μM” value (CYP4503A4) was 7.4 fold and the IC50 (mP2X7) was 103 nM.

With `O=C(NCC(c1scnc1C(F)F)N1CCC(Oc2nc(C3CC3)ns2)CC1)c1c(F)cccc1Cl` (stereo not drawn) [Example 13, 2-Chloro-N-(2-{4-[(3-cyclopropyl-1,2,4-thiadiazol-5-yl)oxy]piperidin-1-yl}-2-[4-(difluoromethyl)-1,3-thiazol-5-yl]ethyl)-6-fluorobenzamide] the IC50 (P2X7 receptor) was 19.2 nM, the “CYP4503A4 mRNA fold increase at 10 μM” value (CYP4503A4) was 9.7 fold and the IC50 (mP2X7) was 33.4 nM.

For `Cc1nsc(OC2CCN(C(CNC(=O)c3c(F)cccc3Cl)c3scnc3C(F)F)CC2)n1` (stereo not drawn) [Example 11, 2-Chloro-N-{2-[4-(difluoromethyl)-1,3-thiazol-5-yl]-2-{4-[(3-methyl-1,2,4-thiadiazol-5-yl)oxy]piperidin-1-yl}ethyl}-6-fluorobenzamide], the IC50 (P2X7 receptor) was 50.5 nM, the “CYP4503A4 mRNA fold increase at 10 μM” value (CYP4503A4) was 7.9 fold and the IC50 (mP2X7) was 183 nM.

With `O=C(NCC(c1scnc1C(F)F)N1CCC(Oc2cc(F)ccn2)CC1)c1c(F)cccc1Cl` (stereo not drawn) [Example 81, 2-chloro-N-{2-[4-(difluoromethyl)-1,3-thiazol-5-yl]-2-{4-[(4-fluoropyridin-2-yl)oxy]piperidin-1-yl}ethyl}-6-fluorobenzamide] the IC50 (P2X7 receptor) was 20.1 nM, the “CYP4503A4 mRNA fold increase at 10 μM” value (CYP4503A4) was 4.8 fold and the IC50 (mP2X7) was 38.1 nM.
